From paper PMC2912498 (Cancer research, 2010)
Like-named read-outs stand apart in the source and are kept apart here.

Columns and labels:
[1] = system: GSK-3 dependent Tau phosphorylation; assay type: cell-based, human
survivin promoter = assay type: cell-based, human
[2] = system: U2OS GFP-β-catenin human osteosarcoma cells; assay type: cell-based
free β-catenin [3] = assay type: cell-based, human
Tyrosine Phosphatase = assay type: biochemical
SW480 (APC mutant) = assay type: cell-based, human; conditions: read-out: SW480 (APC mutant) GI50; 72h
CCD841Co (Control) = assay type: cell-based, human; conditions: read-out: CCD841Co (Control) GI50; 96h; >> = no growth inhibition at the highest concentration tested
free β-catenin [4] = assay type: cell-based, human; conditions: SW480 cells
[5] = system: TCF-dependent transcription; assay type: cell-based, human; conditions: read-out: Reporter IC50; 7dF3 reporter activity
Zebrafish embryos = assay type: in vivo; conditions: added at the 16-cell stage
β-catenin [6] = assay type: cell-based, mouse
SNU475 (Axin mutant) = assay type: cell-based, human; conditions: read-out: SNU475 (Axin mutant) GI50; 96h
β-catenin [7] = assay type: cell-based, mouse; remark: listed apart in the source
[8] = system: TCF-dependent transcription; assay type: cell-based, human
c-myc promoter = assay type: cell-based, human
[9] = system: HCT116 human colon cancer cell; assay type: cell-based
HT29 (APC mutant) = assay type: cell-based, human; conditions: read-out: HT29 (APC mutant) GI50; 72h
[10] = system: TCF-dependent transcription; assay type: cell-based, human; remark: listed apart in the source
PP1 = assay type: biochemical
LEF-1 mRNA = assay type: cell-based, human
[11] = system: HCT116 (oncogenic β-catenin); assay type: cell-based, human; conditions: read-out: HCT116 (oncogenic β-catenin) GI50; 72h
recombinant GSK3 = assay type: biochemical
PP2A = assay type: biochemical
Xenopus laevis embryos = assay type: in vivo; conditions: added at the 4-16 cell stage

6-bromoindirubin-3′-oxime [BIO, reference compound]
GSK-3 dependent Tau phosphorylation on Thr-181 ([1]; HEK293): reduce GSK-3 dependent Tau phosphorylation on Thr-181

CCT031374
activity against survivin promoter luciferase reporter (survivin promoter): showed activity
formation of GFP-β-catenin aggregates [2]: induced formation of GFP-β-catenin aggregates
free β-catenin levels (free β-catenin [3]): blocked free β-catenin levels
Tyrosine Phosphatase enzyme activity (Tyrosine Phosphatase): no activity
GI50 (SW480 (APC mutant)): 13.2 µM
GI50 (CCD841Co (Control)): > 44 µM
free β-catenin levels (free β-catenin [4]): not altered
IC50 [5]: 6.1 µM
effect on Zebrafish embryo development (Zebrafish embryos): did not show clear responses
BIO-induced accumulation / levels of β-catenin (β-catenin [6]): prevented BIO-induced accumulation of β-catenin
degradation of endogenous wild-type β-catenin stabilized by BIO (β-catenin [6]): increased the degradation
degradation of β-catenin stabilized by Wnt-3A and LiCl (β-catenin [6]): resistant to degradation
degradation of β-catenin stabilized with MG132 (β-catenin [6]): not degraded
nuclear and cytosolic β-catenin pools (β-catenin [6]): reduction in both nuclear and cytosolic β-catenin pools
time to reduce levels of BIO-stabilized β-catenin (β-catenin [6]): ≤ 60 min
β-catenin N-terminal phosphorylation (β-catenin [6]): did not increase β-catenin N-terminal phosphorylation
β-catenin degradation products characteristic of calpain-induced proteolysis (β-catenin [6]): failed to induce β-catenin degradation products
GI50 (SNU475 (Axin mutant)): 9.6 µM
time to increased β-catenin degradation (pulse chase) (β-catenin [7]): ≤ 10 min
TCF-dependent transcription (Topflash) [8]: reduced TCF-dependent transcription
reversal of the BIO block of Tau phosphorylation ([1]; HEK293, BIO plus 20μM CCT031374): largely failed to reduce the BIO block of Tau phosphorylation
activity against c-myc promoter luciferase reporter (c-myc promoter): showed activity
apoptosis shown by caspase 3 activity [9]: inducing apoptosis
caspase activity relative to the other compounds [9]: almost two times more caspase activity than the other compounds
GI50 (HT29 (APC mutant)): 11.5 µM
TCF-dependent transcription induced by stabilized β-catenin (N-terminal deletion of 89 amino acids) [10]: blocked TCF-dependent transcription
PP1 enzyme activity (PP1): no activity
endogenous LEF-1 mRNA levels (LEF-1 mRNA): showed activity against endogenous LEF-1 mRNA levels
GI50 [11]: 13.9 µM
inhibition of recombinant GSK3 (recombinant GSK3): did not inhibit
PP2A enzyme activity (PP2A): no activity
effect on Xenopus embryo development (Xenopus laevis embryos): did not show clear responses
